The results in this text go back to PubChem BioAssay (NCI).

The GI50 is the concentration that inhibits growth by half. The TGI is the concentration giving total growth inhibition. Read a low TGI as more potent growth arrest.

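These data come from cells grown in 96-well plates and exposed to compound for 48 hours at five concentrations. Here, GI50 denotes the concentration required for 50% inhibition of growth. TGI: concentration producing complete growth inhibition.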

Some test systems named below: SN12C renal; UO-31 renal; DU-145 prostate; NCI-H460 lung; SF-268 CNS; HT29 colon; SK-OV-3 ovarian; UACC-62 melanoma; SNB-75 CNS; HCC-2998 colon.
Test in all cases: DTP human tumour cell line panel, 48 h

With `S=C(SSC(=S)N1CCCCC1)N1CCCCC1`, the GI50 with SN12C renal was 17.2 µM; in the test on UO-31 renal, 19.2 µM; in the test on DU-145 prostate it was 15.5 µM; in the test on NCI-H460 lung, 10.9 µM; in the test with SF-268 CNS, 17.4 µM; with HT29 colon, 14.3 µM. Besides, the GI50 is 48.4 µM with SK-OV-3 ovarian, 16 µM in the test on UACC-62 melanoma, 16.7 µM in the test on SNB-75 CNS and 28.9 µM with HCC-2998 colon. Besides, the TGI in the test with SN12C renal is 50.4 µM; in the test with UO-31 renal, more than 100 µM; in the test on DU-145 prostate, more than 100 µM; with NCI-H460 lung, 41.5 µM; in the test on SF-268 CNS, 41.6 µM; with HT29 colon, 29 µM. Besides, the total growth inhibition concentration (TGI) in the test with SK-OV-3 ovarian was more than 100 µM; in the test with UACC-62 melanoma it was 49.1 µM; in the test on SNB-75 CNS it was 57.6 µM; in the test with HCC-2998 colon, more than 100 µM.

For `COc1cc(C(=O)n2nc(N)c3c(C)cc(C)nc32)cc(OC)c1OC`, the GI50 was more than 100 µM in the test with SN12C renal; more than 100 µM with UO-31 renal; more than 100 µM with DU-145 prostate; more than 100 µM with NCI-H460 lung; more than 100 µM with SF-268 CNS; 3.46 µM with HT29 colon. The GI50 with SK-OV-3 ovarian was more than 82.4 µM; in the test with UACC-62 melanoma, 54.1 µM; in the test on SNB-75 CNS it was more than 38.3 µM; in the test with HCC-2998 colon it was more than 100 µM. The TGI in the test with SN12C renal, in the test on UO-31 renal, in the test on DU-145 prostate, in the test on NCI-H460 lung, in the test on SF-268 CNS and with HT29 colon was more than 100 µM each time. In addition, the TGI with SK-OV-3 ovarian, with UACC-62 melanoma, in the test with SNB-75 CNS and with HCC-2998 colon was more than 100 µM in each case.

`CSc1nc2c(c(=O)n1C)C(c1ccccc1)C1=C(N2)/C(=C/c2ccccc2)CCC1` (stereo not given): the GI50 in the test with SN12C renal is 53 µM; in the test with UO-31 renal, 1.69 µM; in the test on DU-145 prostate, 8.02 µM; in the test with NCI-H460 lung it was 9.87 µM; with SF-268 CNS, 10.7 µM; in the test on HT29 colon it was 3.58 µM. Also, the GI50 was 25.1 µM in the test with SK-OV-3 ovarian, 7.95 µM in the test on UACC-62 melanoma, 11.3 µM with SNB-75 CNS and more than 100 µM in the test with HCC-2998 colon. Besides, the total growth inhibition concentration (TGI) was more than 100 µM with SN12C renal; 30.7 µM in the test on UO-31 renal; more than 100 µM with DU-145 prostate; more than 100 µM in the test with NCI-H460 lung; more than 100 µM in the test on SF-268 CNS; 71 µM in the test with HT29 colon. Besides, the TGI was 78.7 µM with SK-OV-3 ovarian, more than 100 µM in the test on UACC-62 melanoma, 29.7 µM with SNB-75 CNS and more than 100 µM in the test with HCC-2998 colon.

As for `FC(F)(F)c1cccc(-c2[nH]ncc2-c2nnnn2-c2ccccc2)c1`, the GI50 was 9.76 µM with SN12C renal; 10.7 µM in the test with UO-31 renal; 7.43 µM in the test with DU-145 prostate; 3.32 µM in the test on NCI-H460 lung; 7.69 µM with SF-268 CNS; 2.99 µM in the test with HT29 colon. The GI50 with SK-OV-3 ovarian is 6.05 µM; in the test with UACC-62 melanoma it was 4.22 µM; in the test with SNB-75 CNS it was 4.81 µM; with HCC-2998 colon it was 2.5 µM. The total growth inhibition concentration (TGI) with SN12C renal turned out to be 21.9 µM; in the test on UO-31 renal, 23.6 µM; in the test on DU-145 prostate it was 21.5 µM; in the test with NCI-H460 lung, 12.8 µM; in the test on SF-268 CNS, 23.3 µM; in the test with HT29 colon, 9.33 µM. Further, the concentration for total growth inhibition (TGI) in the test with SK-OV-3 ovarian amounted to 21.9 µM; with UACC-62 melanoma, 15.8 µM; in the test on SNB-75 CNS, 20.1 µM; with HCC-2998 colon, 11 µM.

For the molecule `CC(C)(C)[Si](C)(C)OC1[C@@H](COC(=O)NC(=O)CCl)O[C@@H](n2cnc3c(N)ncnc32)[C@H]1O[Si](C)(C)C(C)(C)C` (stereo not given in full), the GI50 was 1.17 µM in the test on SN12C renal; 2.3 µM with UO-31 renal; 5.75 µM with DU-145 prostate; 7.22 µM in the test on NCI-H460 lung; 1.93 µM in the test with SF-268 CNS; 2.59 µM with HT29 colon. Also, the GI50 is 2.92 µM with SK-OV-3 ovarian, 6.14 µM in the test with UACC-62 melanoma, 3.64 µM with SNB-75 CNS and 5.44 µM with HCC-2998 colon. The TGI in the test with SN12C renal turned out to be 3.23 µM; in the test on UO-31 renal it was 5.88 µM; in the test on DU-145 prostate it was 12 µM; in the test with NCI-H460 lung, 14.9 µM; in the test on SF-268 CNS it was 5.23 µM; in the test with HT29 colon, 8.53 µM. Further, the TGI in the test with SK-OV-3 ovarian was 5.95 µM; in the test with UACC-62 melanoma, 12.7 µM; with SNB-75 CNS it was 10.8 µM; in the test on HCC-2998 colon, 12.6 µM.

In the case of `Cc1cc(N2CCOCC2)nc(NCc2cc(Nc3ccnc4cc(Cl)ccc34)ccc2F)n1`, the GI50 is 1.83 µM in the test on SN12C renal; 1.57 µM in the test on UO-31 renal; 1.6 µM in the test on DU-145 prostate; 1.83 µM with NCI-H460 lung; 1.42 µM in the test on SF-268 CNS; 0.834 µM in the test on HT29 colon. Also, the GI50 with SK-OV-3 ovarian was 1.92 µM; in the test on UACC-62 melanoma, 1.75 µM; in the test on SNB-75 CNS it was 1.19 µM; in the test on HCC-2998 colon, 1.67 µM. For the same molecule, the TGI is 3.66 µM in the test on SN12C renal; 3 µM with UO-31 renal; 3.08 µM with DU-145 prostate; 3.57 µM in the test with NCI-H460 lung; 3.02 µM in the test with SF-268 CNS; 2.24 µM in the test with HT29 colon. Moreover, the TGI in the test with SK-OV-3 ovarian stood at 3.48 µM; in the test on UACC-62 melanoma, 3.35 µM; in the test on SNB-75 CNS, 2.64 µM; in the test with HCC-2998 colon, 3.26 µM.
